Source: patent publication US20120289432A1, “PI3K MODULATORS, RHO KINASE MODULATORS AND METHODS OF IDENTIFYING AND USING SAME” (Corning Incorporated, priority 2009, published 2012)
“Also recorded” adds a separate entry of the source. Read-outs that look alike come from different tables or passages of the source.

Assays:
Assay type in all cases: cell-based, human
[1] = system: A549 cells; assay: DMR modulation of marker-induced responses (two-step assay) in A549 cells; details: for modulation of the pinacidil response in A549 cells: compound pretreatment ~1 hr (10 micromolar), then pinacidil 10 micromolar; for modulation of the forskolin response (P-DMR) in A549 cells / modulation of the histamine response (early and late P-DMR) in A549 cells: inhibitor 10 micromolar; for modulation of the forskolin response (P-DMR) in A549 cells: forskolin 16 micromolar; for modulation of the histamine response (early and late P-DMR) in A549 cells: histamine 10 micromolar
Procedure: (§1) The index was generated after normalizing each marker-induced DMR signal in the presence of the inhibitor to its corresponding signal in the absence of the inhibitor. The percentage of modulation for each marker by the inhibitor was plotted as a function of the marker. As shown from left to right in a sequential order, the DMR events used for the basis of the modulation percentage calculation are: the N-DMR (50 min after stimulation) for pinacidil in A549, the P-DMR (50 min after stimulation) for forskolin in A549, the early P-DMR event (˜10 min after histamine stimulation) and the late P-DMR event (˜30 min after histamine stimulation) for histamine in A549, and the early P-DMR event (˜5 min after EGF stimulation) and the subsequent N-DMR event (˜30 min after EGF stimulation) for EGF in A431 cells. In all cases, the amplitudes of respective DMR events were used as the basis to calculate the percentages of modulation by the PI3K inhibitors. The same procedure was used to generate FIGS. 8 to 14.
(§2) Cells were typically grown using ˜1 to 2×10^4 cells per well at passage 3 to 15 suspended in 50 μl of the corresponding culture medium in the biosensor microplate, and were cultured at 37° C. under air/5% CO2 for ˜1 day. Except for A431 which underwent one day culture followed by one starvation in serum free medium, all other cells were directly assayed without starvation. The confluency for all cells at the time of assays was ˜95% to 100%.
(§3) For biosensor cellular assays, molecule solutions were made by diluting the stored concentrated solutions with the HBSS (1× Hanks balanced salt solution, plus 20 mM Hepes, pH 7.1), and transferred into a 384 well polypropylene molecule storage plate to prepare a molecule source plate. Both molecule and marker source plates were made separately when a two-step assay was performed. In parallel, the cells were washed twice with the HBSS and maintained in 30 μl of the HBSS to prepare a cell assay plate. Both the cell assay plate and the molecule and marker source plate(s) were then incubated in the hotel of the reader system. After ˜1 hr of incubation the baseline wavelengths of all biosensors in the cell assay microplate were recorded and normalized to zero. Afterwards, a 2 to 10 minute continuous recording was carried out to establish a baseline, and to ensure that the cells reached a steady state. Cellular responses were then triggered by pipetting 10 μl of the marker solutions into the cell assay plate using the on-board liquid handler.
(§4) To study the influence of molecules on a marker-induced response, a second stimulation with the marker at a fixed dose (typically at EC80 or EC100) was applied. The resonant wavelengths of all biosensors in the microplate were normalized again to establish a second baseline, right before the second stimulation. The two stimulations were usually separated by ˜1 hr.
(§5) All studies were carried out at a controlled temperature (28° C.). At least two independent sets of experiments, each with at least three replicates, were performed.

[2] = system: A431 cells; assay: DMR modulation of the EGF-induced response in quiescent A431 cells
Procedure: as §1, §2, §3, §4, §5

[3] = system: A549 cells; assay: Label-free RWG (Epic) biosensor DMR assay, agonism mode, A549 cells; details: for EC50: Homo sapiens; for maximal amplitude / maximal response of the N-DMR signal: n=4
Procedure: as §2
(§6) Epic® beta version wavelength interrogation system (Corning Inc., Corning, N.Y.) was used for whole cell sensing. This system consists of a temperature-control unit, an optical detection unit, and an on-board liquid handling unit with robotics. The detection unit is centered on integrated fiber optics, and enables kinetic measures of cellular responses with a time interval of ˜15 sec.
as §3, §5

[4] = system: HepG2 cells; assay: DMR modulation of the ODN2006-induced response in HepG2 cells; details: inhibitor 10 micromolar, ODN2006 500 nM
Procedure: as §2
as §3, with “Cellular responses were then triggered by pipetting 10 μl of the marker solutions into the cell assay plate using the on-board liquid handler.” left out

[5] = system: HepG2 cells; assay: Label-free RWG biosensor DMR assay, agonism mode, HepG2 cells; details: primary profile
Procedure: as §2, §6
For biosensor cellular assays, molecule solutions were made by diluting the stored concentrated solutions with the HBSS (1× Hanks balanced salt solution, plus 20 mM Hepes, pH 7.1), and transferred into a 384 well polypropylene molecule storage plate to prepare a molecule source plate. […] Both the cell assay plate and the molecule and marker source plate(s) were then incubated in the hotel of the reader system. After ˜1 hr of incubation the baseline wavelengths of all biosensors in the cell assay microplate were recorded and normalized to zero. […]

[6] = system: A549 and HepG2 cells; assay: Biosensor index against panel of cells/markers (A549 and HepG2), compared with Y-27632
Text: It is well known that many kinas inhibitors often display polypharmacology (i.e., many kinase inhibitors can modulate the activity of multi-targets in a cell). In addition, drugs including kinase inhibitors often display cell- or tissue-dependent phenotypic pharmacology, due to the many cellular factors including post-transcriptional modifications, compartmentalization of signaling cascades, alteration of key gene products in the pathway, receptor oligomerization, and constitutive receptor activity. […] Thus, the primary modes of action of a drug or drug candidate molecule, including ROCK inhibitors, are a sum of at least several types of pharmacology—polypharmacology, phenotypic pharmacology and systems (integrative) pharmacology. To correctly detect the phenotypic pharmacology of a ROCK inhibitor that acts via the inhibition of ROCK activity in live cell, one needs a panel of cells as well as panels of markers using the biosensor cellular assays. Thus, a ROCK inhibitor responsive cell line, A549, and a ROCK inhibitor unresponsive cell line, HepG2, were chosen as model systems. […]

[7] = ~30 min after histamine stimulation
[8] = inhibitor 10 micromolar, EGF 32 nM

Row | Compound | modulation of the P-DMR event of the EGF response in A431 cells [2, 8] | modulation of the pinacidil response in A549 cells [1] | modulation of the forskolin response (P-DMR) in A549 cells [1] | modulation of the histamine response (early and late P-DMR) in A549 cells [1] | further results
1 | Cc1cc(C(C)Nc2ccccc2)c2nc(N3CCOCC3)cc(=O)n2c1 (racemic) [PI3Kβ inhibitor II, (+/−)-7-Methyl-2-(morpholin-4-yl)-9-(1-phenylaminoethyl)-pyridol[1,2-a]-pyrimidin-4-one] | significantly attenuated | – | – | – | modulation of the late P-DMR event of the histamine response in A549 cells [1, 7]: slightly suppression
2 | O=c1cc(N2CCOCC2)oc2c1ccc1ccccc12 [DNA-PK inhibitor II, 2-(Morpholin-4-yl)-benzo[h]chromen-4-one] | small attenuation | little or not modulation | significant potentiation | significant potentiation | –
3 | CC(=O)c1ccc(N2CCOCC2)cc1O [DNA-PK inhibitor III, 1-(2-Hydroxy-4-morpholin-4-yl-phenyl)ethanone] | small attenuation | little or not modulation | significant potentiation | significant potentiation | –
4 | CC1CNCCN1S(=O)(=O)c1cccc2cnccc12 (centres unmarked) [H-7] | – | complete or significant attenuation | – | – | –
5 | CNCCNS(=O)(=O)c1cccc2cnccc12 [H-8] | – | complete or significant attenuation | – | – | –
6 | NCCNS(=O)(=O)c1cccc2cnccc12 [H-9] | – | complete or significant attenuation | – | – | –
7 | O=S(=O)(NCCNC/C=C/c1ccc(Br)cc1)c1cccc2cnccc12 [H-89] | – | complete or significant attenuation | – | – | –
8 | NC(N)=NCCNS(=O)(=O)c1cccc2cnccc12 [HA-1004] | – | complete or significant attenuation | – | – | –
9 | O=S(=O)(c1cccc2cnccc12)N1CCCNCC1 [HA-1077] | – | complete or significant attenuation | – | – | –
10 | O=c1cc(N2CCOCC2)oc2c(-c3ccccc3)cccc12 [LY294002] | – | – | – | – | modulation of the pinacidil response (N-DMR) ([1]; N-DMR 50 min after stimulation, marker signal with inhibitor normalized to signal without, FIG. 7C): −9%; modulation of the forskolin response (P-DMR) ([1]; P-DMR 50 min after stimulation, FIG. 7C): +33%; modulation of the histamine response, early P-DMR ([1]; ~10 min after histamine stimulation, FIG. 7C): +41%; modulation of the histamine response, late P-DMR ([1]; ~30 min after histamine stimulation, FIG. 7C): +90%; EC50 ([3]; 50 min, N-DMR amplitudes ~50 min after stimulation, n=4, read-out: EC50 of the N-DMR signal): 14.7 ± 1.5 µM; maximal amplitude / maximal response of the N-DMR signal [3]: ~400 picometers
11 | O=C1NC(=O)C(=Cc2ccc3nccnc3c2)S1 [PI3Kγ inhibitor, 5-quinoxalin-6-ylmethylene-thiazolindine-2,4-dione] | small attenuation | little or not modulation | significant potentiation | significant potentiation | modulation of the late P-DMR event of the histamine response in A549 cells [1, 7]: moderate potentiation
12 | Oc1cccc(-c2nc(N3CCOCC3)c3oc4ncccc4c3n2)c1 [PI-103] | small attenuation | little or not modulation | significant potentiation | significant potentiation | –
13 | c1ccc2c(-c3ccncc3)c[nH]c2c1 [Rho kinase inhibitor III Rockout] | – | complete or significant attenuation | – | – | –
14 | CC(N/C(=N\C#N)Nc1ccncc1)C(C)(C)C (centres unmarked) [pinacidil] | – | – | – | – | EC50 ([3]; stimulation with pinacidil, read-out: EC50 of the biosensor signal): ~5 µM
15 | O=c1c(O)c(-c2ccc(O)c(O)c2)oc2cc(O)cc(O)c12 [quercetin] | small attenuation | little or not modulation | potentiated; also recorded: significant potentiation | potentiated; also recorded: significant potentiation | modulation index score, forskolin ([1]; score +1 per 10% modulation): 2; modulation index score, histamine early P-DMR ([1]; score +1 per 10% modulation): 4; modulation index score, histamine late P-DMR ([1]; score +1 per 10% modulation): 9; modulation index score, pinacidil ([1]; score +1 per 10% positive modulation, opposite for negative): −1; modulation of the ODN2006 DMR signal in HepG2 cells [4]: slightly attenuated; modulation of the N-DMR event of the EGF response in A431 cells [2, 8]: attenuated; modulation index score, EGF N-DMR ([2]; score +1 per 10% modulation): −5; modulation index score, EGF P-DMR ([2]; score +1 per 10% modulation): 0
16 | Oc1ccc(C=Cc2cc(O)cc(O)c2)cc1 [resveratrol] | small attenuation | little or not modulation | significant potentiation | significant potentiation | –
17 | COC[C@H]1OC(=O)c2coc3c2[C@@]1(C)C1=C(C3=O)[C@@H]2CCC(=O)[C@@]2(C)C[C@H]1OC(C)=O [wortmannin] | – | – | – | – | EC50 ([3]; 50 min, N-DMR amplitudes ~50 min after stimulation, n=4, read-out: EC50 of the DMR signal): 0.0727 ± 0.0034 µM; maximal amplitude / maximal response of the N-DMR signal [3]: ~700 picometers
18 | CDK1/2 inhibitor III | – | – | – | – | DMR (biosensor) signal of the compound in A549 cells ([3]; primary profile): negative DMR signal; DMR (biosensor) signal of the compound in HepG2 cells [5]: small decaying signal; modulation of the biosensor signals of the markers in the panel ([6]; pinacidil, poly(IC), PMA, SLIGKV-amide, forskolin, histamine (A549), ODN2006 (HepG2)): attenuated the biosensor signals of most of markers; biosensor index compared with the Y-27632 biosensor index ([6]; primary profiles in A549 and HepG2 and modulation index against the panel of markers): quite distinct biosensor index
19 | Rho kinase inhibitor IV | – | complete or significant attenuation | – | – | –
